The target in one experiment is cMET (Homo sapiens, UniProt P08581). Put plainly: Evaluation of inhibitory activity against MET (TR-FRET kinase assay). The experiment is classed as biochemical. Conditions: cMET protein, TK peptide substrate. The method, then:
In addition, in order to measure the enzyme activity inhibition for cMET, the evaluation was performed in the same manner as the enzyme activity inhibition measurement experiment for RON.
Specifically, the compound was prepared to a concentration of 1 mM in 100% DMSO and was diluted 10 times in a stepwise manner through 3-fold dilution. The compound (2 ul) diluted in a stepwise manner was added to a 96-well-plate containing 48 ul of a 1× kinase reaction buffer (50 mM HEPES (pH 7.4), 0.05% BSA, 0.005% Tween-20, 1 mM DTT, 0.5 mM MnCl2, 20 mM MgCl2).
The cMET protein was diluted to a concentration of 263 nM in a cMET storage buffer (50 mM Tris-HCl (pH 7.5), 150 mM NaCl, 0.05% Brij35, 1 mM DTT, 10% Glycerol), and then diluted again to a concentration of 2 nM in a 1× kinase reaction buffer. As a substrate cocktail, a MET-specific substrate mixed solution (5 uM TK peptide, 10 mM ATP) was prepared at a concentration 2 times the final reaction concentration.
(§1) Thereafter, a 384-well-plate was prepared, and 2.5 μl of each of the diluted compounds of Examples was added to a corresponding well of experimental group wells, and 2.5 μl of a 4% DMSO solution was dispensed into high control wells and low control wells.
(§2) Thereafter, 2.5 μL of 2 nM cMET was dispensed into each of the high control wells and the experimental group wells, and 2.5 μL of the 1×kinase reaction buffer was added to the low control wells, and all the wells were centrifuged at room temperature for 40 seconds at 1,000 RPM, and then incubated at room temperature for 20-30 minutes. Then, 5 uL of the substrate cocktail (2×) was dispensed into each well, and all the wells were centrifuged at room temperature for 40 seconds at 1,000 RPM, and then incubated at room temperature for 60 minutes. Thereafter, 5 uL of 90 mM EDTA was added to each well to terminate the reaction, and all the wells were then incubated again at room temperature for 5 minutes. Thereafter, 5 uL of a 4× phosphotyrosine antibody (Perkin Elmer) containing europium was added to each well, and all the wells were then incubated at room temperature for 60 minutes. After the incubation, the 384-well-plate was read with the Vison plate reader. In this case, the excitation wavelength was 340 nm, and the emission wavelength was 620 nm and 665 nm. The IC50 value of each compound of Examples was derived using the GraphPd Prism7 program.
Background: Time-resolved FRET reads energy transfer from a long-lived donor to a nearby acceptor.

Another experiment addresses RON (Homo sapiens, UniProt Q04912). As to the kind of experiment: Evaluation of inhibitory activity against RON (TR-FRET kinase assay). The experiment is classed as biochemical. Conditions: RON protein, ULight-labeled Poly GT substrate. The method, then:
In order to measure the inhibitory activity of each of the compounds of Examples against RON, the IC50 of each of the compounds was measured using Time-resolved fluorescence energy transfer (TR-FRET).
Specifically, the compound was prepared to a concentration of 1 mM in 100% DMSO and was diluted 10 times in a stepwise manner through 3-fold dilution. The compound (2 ul) diluted in a stepwise manner was added to a 96-well-plate containing 48 ul of a 1× kinase reaction buffer (50 mM HEPES (pH 7.4), 0.01% Tween-20, 5 mM DTT, 0.5 mM Na3VO4, 2 mM EGTA, 10 mM MgCl2).
The RON protein was diluted to a concentration of 49.3 nM in a RON storage buffer (50 mM Tris-HCl (pH 7.5), 150 mM NaCl, 0.5 mM EDTA, 0.02% Triton X-100), and then diluted again to a concentration of 0.4 nM in a 1×kinase reaction buffer. As a substrate cocktail, a RON-specific substrate mixed solution (40 uM ULight-labeled Poly GT, 100 nM ATP) was prepared at a concentration 2 times the final reaction concentration.
as §1
as §2, with “of 0.4” for “of 2”, “nM RON” for “nM cMET”, “the 1× kinase” for “the 1×kinase”, “of 30” for “of 90”

By IC50 is commonly meant the concentration needed to halve the response being measured. A higher IC50 goes with lower potency.

The structures appear in SMILES notation. Bounds are passed on as bounds.

Sequence of cMET (P08581 25-1390): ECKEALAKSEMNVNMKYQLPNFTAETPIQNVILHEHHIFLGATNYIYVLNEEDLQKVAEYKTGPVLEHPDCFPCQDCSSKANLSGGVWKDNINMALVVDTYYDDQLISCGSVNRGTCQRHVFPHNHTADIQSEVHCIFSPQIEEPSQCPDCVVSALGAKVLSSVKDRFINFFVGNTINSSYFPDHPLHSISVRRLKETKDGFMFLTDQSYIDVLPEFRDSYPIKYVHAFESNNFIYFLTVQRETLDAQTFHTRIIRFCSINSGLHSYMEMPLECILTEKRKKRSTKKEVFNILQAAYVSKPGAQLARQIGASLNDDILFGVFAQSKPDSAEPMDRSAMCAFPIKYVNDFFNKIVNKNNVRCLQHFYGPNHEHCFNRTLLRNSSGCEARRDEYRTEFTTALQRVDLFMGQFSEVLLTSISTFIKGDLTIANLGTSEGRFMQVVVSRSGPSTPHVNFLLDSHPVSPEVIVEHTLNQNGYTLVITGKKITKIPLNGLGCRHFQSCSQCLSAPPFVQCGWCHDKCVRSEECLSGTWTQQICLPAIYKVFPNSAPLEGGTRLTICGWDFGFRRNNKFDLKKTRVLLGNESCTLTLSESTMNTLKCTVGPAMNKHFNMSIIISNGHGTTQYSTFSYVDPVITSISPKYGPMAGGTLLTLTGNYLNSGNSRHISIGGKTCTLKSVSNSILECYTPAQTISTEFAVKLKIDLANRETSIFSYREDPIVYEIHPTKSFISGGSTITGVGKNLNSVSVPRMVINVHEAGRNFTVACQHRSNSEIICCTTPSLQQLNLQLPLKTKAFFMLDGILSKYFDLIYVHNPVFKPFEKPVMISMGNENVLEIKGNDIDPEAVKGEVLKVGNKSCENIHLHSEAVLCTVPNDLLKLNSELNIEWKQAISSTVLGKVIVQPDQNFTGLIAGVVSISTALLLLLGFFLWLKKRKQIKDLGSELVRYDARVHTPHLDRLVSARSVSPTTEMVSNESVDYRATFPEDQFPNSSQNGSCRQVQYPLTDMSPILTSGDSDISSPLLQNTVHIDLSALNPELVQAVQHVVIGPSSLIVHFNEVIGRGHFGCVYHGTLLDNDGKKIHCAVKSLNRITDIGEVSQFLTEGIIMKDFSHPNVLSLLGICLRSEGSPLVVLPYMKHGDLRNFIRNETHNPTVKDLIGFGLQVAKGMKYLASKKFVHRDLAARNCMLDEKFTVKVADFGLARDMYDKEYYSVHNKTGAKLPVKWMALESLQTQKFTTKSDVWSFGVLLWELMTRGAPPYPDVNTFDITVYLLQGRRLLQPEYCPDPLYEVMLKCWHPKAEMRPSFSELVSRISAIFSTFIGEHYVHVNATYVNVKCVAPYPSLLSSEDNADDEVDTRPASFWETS
Sequence of RON (Q04912 25-1400, species assumed): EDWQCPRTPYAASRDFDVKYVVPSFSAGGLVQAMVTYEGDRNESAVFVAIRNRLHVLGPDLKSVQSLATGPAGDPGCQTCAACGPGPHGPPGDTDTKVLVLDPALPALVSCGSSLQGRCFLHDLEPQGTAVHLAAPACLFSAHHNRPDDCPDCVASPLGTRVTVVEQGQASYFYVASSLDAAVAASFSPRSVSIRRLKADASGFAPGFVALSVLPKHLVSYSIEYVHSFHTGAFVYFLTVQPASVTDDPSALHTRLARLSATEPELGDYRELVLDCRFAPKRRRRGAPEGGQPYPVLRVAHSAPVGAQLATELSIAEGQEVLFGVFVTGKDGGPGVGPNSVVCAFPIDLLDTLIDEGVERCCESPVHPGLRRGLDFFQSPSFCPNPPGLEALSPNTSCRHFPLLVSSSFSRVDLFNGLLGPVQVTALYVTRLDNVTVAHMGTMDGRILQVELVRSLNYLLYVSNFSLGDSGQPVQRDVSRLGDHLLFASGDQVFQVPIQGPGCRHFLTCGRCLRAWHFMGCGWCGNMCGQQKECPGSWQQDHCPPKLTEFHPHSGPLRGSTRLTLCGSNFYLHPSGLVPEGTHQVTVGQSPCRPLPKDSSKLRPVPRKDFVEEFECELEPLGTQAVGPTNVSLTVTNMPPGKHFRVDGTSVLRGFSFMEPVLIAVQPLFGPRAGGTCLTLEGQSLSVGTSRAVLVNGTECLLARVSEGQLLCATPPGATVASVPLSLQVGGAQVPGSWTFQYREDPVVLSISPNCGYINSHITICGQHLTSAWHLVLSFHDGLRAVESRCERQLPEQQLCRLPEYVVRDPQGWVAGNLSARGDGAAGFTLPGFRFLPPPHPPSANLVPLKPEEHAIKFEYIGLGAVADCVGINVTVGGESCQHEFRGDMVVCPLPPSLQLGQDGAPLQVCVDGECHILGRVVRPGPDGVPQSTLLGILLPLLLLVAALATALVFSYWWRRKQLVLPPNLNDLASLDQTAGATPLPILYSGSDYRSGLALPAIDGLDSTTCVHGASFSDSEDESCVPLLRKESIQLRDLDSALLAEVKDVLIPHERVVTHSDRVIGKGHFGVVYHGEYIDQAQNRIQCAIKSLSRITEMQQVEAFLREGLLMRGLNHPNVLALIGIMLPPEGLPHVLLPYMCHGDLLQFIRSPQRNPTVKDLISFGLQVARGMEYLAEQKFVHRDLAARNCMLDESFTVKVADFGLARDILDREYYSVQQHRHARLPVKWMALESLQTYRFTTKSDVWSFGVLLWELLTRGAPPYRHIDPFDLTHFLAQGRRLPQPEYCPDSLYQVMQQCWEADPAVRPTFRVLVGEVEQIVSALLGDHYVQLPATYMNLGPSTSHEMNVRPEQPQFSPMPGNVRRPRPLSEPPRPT

For `Cc1nc(-c2ccccc2)sc1C(=O)Nc1ccc(Oc2ncnc(N)c2Cl)c(F)c1` [Example 61, N-[4-(6-amino-5-chloro-pyrimidin-4-yl)oxy-3-fluorophenyl]-4-methyl-2-phenyl-thiazole-5-carboxamide], the results for the IC50 against cMET and against RON were greater than 5000 nM and 500 to 5000 nM, respectively.
In the case of `Nc1nccc(Oc2ccc(NC(=O)c3ncn(-c4ccccc4)c3C(F)(F)F)cc2F)c1N` [Example 27], the IC50 was greater than 5000 nM on cMET and 50 to 500 nM on RON.
The corresponding values for `Nc1nccc(Oc2ccc(NC(=O)c3cnn(Cc4ccccc4)c3C(F)(F)F)cc2F)c1Cl` [Example 13, N-(4-((2-amino-3-chloropyridin-4-yl)oxy)-3-fluorophenyl)-1-benzyl-5-(trifluoromethyl)-1H-pyrazole-4-carboxamide] are 500 to 5000 nM and 500 to 5000 nM.
As to `Cc1nn(-c2ccccc2)c(C)c1C(=O)Nc1ccc(Oc2ncnc(N)c2Cl)c(F)c1` [Example 48, N-(4-((6-amino-5-chloro-pyrimidin-4-yl)oxy)-3-fluorophenyl)-3,5-dimethyl-1-phenyl-1H-pyrazole-4-carboxamide], the IC50 is greater than 5000 nM against cMET and 50 to 500 nM against RON.
The like results for `Nc1nccc(Oc2ccc(NC(=O)c3ncn(-c4ccccc4)c3C(F)(F)F)cc2F)c1I` [Example 29, N-(4-((2-amino-3-iodopyridin-4-yl)oxy)-3-fluorophenyl)-1-phenyl-5-(trifluoromethyl)-1H-imidazole-4-carboxamide] were, in that order, 500 to 5000 nM and less than 50 nM.
The corresponding values for `Nc1nccc(Oc2ccc(NC(=O)c3cnn(-c4ccccc4)c3C(F)(F)F)cc2F)c1I` [Example 43, N-(4-((2-amino-3-iodopyridin-4-yl)oxy)-3-fluorophenyl)-1-phenyl-5-(trifluoromethyl)-1H-pyrazole-4-carboxamide] are greater than 5000 nM and less than 50 nM.
As to `Nc1ncnc(Oc2ccc(NC(=O)c3ncn(-c4ccccc4)c3C(F)(F)F)cc2F)c1Cl` [Example 63, N-[4-(6-amino-5-chloro-pyrimidin-4-yl)oxy-3-fluorophenyl]-1-phenyl-5-(trifluoromethyl)imidazole-4-carboxamide], the IC50 against cMET is greater than 5000 nM; at RON, 50 to 500 nM.
The like results for `Cc1c(C(=O)Nc2ccc(Oc3ncnc(N)c3Cl)c(F)c2)nnn1-c1ccccc1F` [Example 56, N-[4-(6-amino-5-chloro-pyrimidin-4-yl)oxy-3-fluorophenyl]-1-(2-fluorophenyl)-5-methyl-triazole-4-carboxamide] were, in that order, greater than 5000 nM and 50 to 500 nM.
The like results for `Nc1nccc(Oc2ccc(NC(=O)c3cnn(-c4ccccc4)c3Cl)cc2F)c1Cl` [Example 18, N-(4-((2-amino-3-chloropyridin-4-yl)oxy)-3-fluorophenyl)-5-chloro-1-phenyl-1H-pyrazole-4-carboxamide] were, in that order, 500 to 5000 nM and 50 to 500 nM.
The like results for `Nc1ncnc(Oc2ccc(NC(=O)c3cnn(C4CCCCC4)c3C(F)(F)F)cc2F)c1Cl` [Example 51] were, in that order, greater than 5000 nM and 50 to 500 nM.
Consider `Nc1nccc(Oc2ccc(NC(=O)c3cnn(-c4ccccc4)c3-c3ccccc3)cc2F)c1Cl` [Example 19, N-(4-((2-amino-3-chloropyridin-4-yl)oxy)-3-fluorophenyl)-1,5-diphenyl-1H-pyrazole-4-carboxamide], for which the half-maximal inhibitory concentration (IC50) against cMET was in the range of 500 to 5000 nM; on RON, 50 to 500 nM.
`Nc1cc(Oc2ccc(NC(=O)c3cnn(-c4ccccc4)c3C(F)(F)F)cc2F)ccn1` [Example 44, N-(4-((2-aminopyridin-4-yl)oxy)-3-fluorophenyl)-1-phenyl-5-(trifluoromethyl)-1H-pyrazole-4-carboxamide]: the IC50 on cMET was greater than 5000 nM; on RON, 50 to 500 nM.
The like results for `Nc1ncnc(Oc2ccc(NC(=O)c3cn(-c4ccccc4)nn3)cc2F)c1Cl` [Example 54, N-[4-(6-amino-5-chloro-pyrimidin-4-yl)oxy-3-fluorophenyl]-1-phenyl-triazole-4-carboxamide] were, in that order, greater than 5000 nM and greater than 5000 nM.
For the compound `CC(C)(C)n1ncc(C(=O)Nc2ccc(Oc3ncnc(N)c3Cl)c(F)c2)c1C(F)(F)F` [Example 58, N-[4-(6-amino-5-chloro-pyrimidin-4-yl)oxy-3-fluorophenyl]-1-tert-butyl-5-(trifluoromethyl)pyrazole-4-carboxamide], the IC50 on cMET was greater than 5000 nM; at RON, 500 to 5000 nM.
As for `Nc1nccc(Oc2ccc(NC(=O)c3cnn(-c4ccccc4)c3C(F)(F)F)c(F)c2)c1Cl` [Example 45, N-(4-((2-amino-3-chloropyridin-4-yl)oxy)-2-fluorophenyl)-1-phenyl-5-(trifluoromethyl)-1H-pyrazole-4-carboxamide], the half-maximal inhibitory concentration (IC50) at cMET is greater than 5000 nM; at RON, 50 to 500 nM.
The corresponding values for `Nc1ncnc(Oc2ccc(NC(=O)c3cnn(-c4ccccc4)c3)cc2F)c1Cl` [Example 57, N-(4-((6-amino-5-chloro-pyrimidin-4-yl)oxy)-3-fluorophenyl)-1-phenyl-1H-pyrazole-4-carboxamide] are greater than 5000 nM and greater than 5000 nM.
The corresponding values for `Nc1nccc(Oc2ccc(NC(=O)c3cnn(-c4ccccc4F)c3C(F)(F)F)cc2F)c1Cl` [Example 12, N-(4-((2-amino-3-chloropyridin-4-yl)oxy)-3-fluorophenyl)-1-(2-fluorophenyl)-5-(trifluoromethyl)-1H-pyrazole-4-carboxamide] are 500 to 5000 nM and 50 to 500 nM.
The corresponding values for `Cc1c(C(=O)Nc2ccc(Oc3ncnc(N)c3Cl)c(F)c2)nnn1-c1ccccc1` [Example 55, N-[4-(6-amino-5-chloro-pyrimidin-4-yl)oxy-3-fluorophenyl]-5-methyl-1-phenyl-triazole-4-carboxamide] are greater than 5000 nM and greater than 5000 nM.
On to `Nc1ncnc(Oc2ccc(NC(=O)c3cnn(-c4ccccc4F)c3C(F)(F)F)cc2F)c1Cl` [Example 52, N-[4-(6-amino-5-chloro-pyrimidin-4-yl)oxy-3-fluorophenyl]-1-(2-fluorophenyl)-5-(trifluoromethyl)pyrazole-4-carboxamide], for which the IC50 against cMET was in the range of 500 to 5000 nM; at RON, 50 to 500 nM.
The like results for `Cc1c(C(=O)Nc2ccc(Oc3ccnc(N)c3Cl)c(F)c2)nnn1-c1ccccc1F` [Example 42, N-(4-((2-amino-3-chloropyridin-4-yl)oxy)-3-fluorophenyl)-1-(2-fluorophenyl)-5-methyl-1H-1,2,3-triazole-4-carboxamide] were, in that order, 500 to 5000 nM and 50 to 500 nM.
The corresponding values for `Cc1c(C(=O)Nc2ccc(Oc3ccnc(N)c3Cl)c(F)c2)cnn1-c1ccccc1` [Example 3, N-(4-((2-amino-3-chloropyridin-4-yl)oxy)-3-fluorophenyl)-5-methyl-1-phenyl-1H-pyrazole-4-carboxamide] are 50 to 500 nM and 50 to 500 nM.

Values taken from patent US20240316017A1, “NOVEL PYRIDINE DERIVATIVE COMPOUND AS RON INHIBITOR” (LG CHEM, LTD., priority 2021, published 2024).
